Key:
[1] = biological target: T1, HIV-1 RT wild type (WT) enzyme (Human immunodeficiency virus type 1 group M subtype B, UniProt P03367); assay: Reverse Transcriptase (RT) Assay, wild type enzyme (RNA-dependent DNA polymerase activity); assay type: biochemical, Human Immunodeficiency Virus (HIV-1); settings: 1 µM compound; for inhibition at 1 µM: read-out: Reverse Transciptase Assay % inhibition (1 µM) WT
T1 construct: Reverse transcriptase enzyme from the LAV strain of Human Immunodeficiency Virus (HIV-1) (1) was isolated from the bacterial strain JM109; made in house; host or cells: E. coli JM109 (clone pBRTprt1+ in vector pIBI21, lac promoter)
Excerpt: Utilizing the Reverse Transcriptase (RT) Assay described below, compounds can be tested for their ability to inhibit the RNA-dependent DNA polymerase activity of HIV-1 RT. Certain specific compounds described in the Examples which appear below, were so tested.
(§1) Among the enzymes for which Human Immunodeficiency Virus (HIV-1) encodes is a reverse transcriptase (1), so-named because it transcribes a DNA copy from an RNA template. This activity can be quantitatively measured in a cell-free enzyme assay, which has been previously described (2), and is based upon the observation that reverse transcriptase is able to use a synthetic template [poly r(C) primed with oligo d(G)] to transcribe a radio-labelled, acid-precipitable DNA strand utilizing ^3H-dGTP as a substrate. The assay described below utilizes the wild type (WT) enzyme, which is the predominant form of the enzyme observed in patients infected with HIV-1. Utilization of mutant RT eraymes (Y181C and Y181L, prepared by site-directed mutagenesis in which the tyrosine residue at codon 181 has been replaced by a cysteine or a leucine residue, respectively) and analogous assay conditions allows compounds to be evaluated for their effectiveness at inhibiting these mutant enzymes.
Reverse transcriptase enzyme from the LAV strain of Human Immunodeficiency Virus (HIV-1) (1) was isolated from the bacterial strain JM109 (3) expressing the DNA clone pBRTprt1+ (2) which is under the control of the lac promotor in the expression vector pIBI21 (4). An overnight culture grown in 2XYT medium (37°C, 225 rpm) (5) supplemented with 100 µg/mL ampicillin for positive selection is inoculated at a 1:40 dilution into M9 medium supplemented with 10µg/mL thiamine, 0.5% casamino acids, and 50 µg/mL ampicillin (5). The culture is incubated (37°C, 225 rpm) until it reaches an OD540 of 0.3-0.4. At that time the repressor inhibitor IPTG (isopropyl β-D-thiogalactopyranoside) is added to 0.5mM, and the mixture is incubated for 2 additional hours. Bacteria are pelleted, resuspended in a 50mM Tris, 0.6mM EDTA, 0.375M NaCl buffer and digested by the addition of lysozyme (1mg/mL) for 30 minutes on ice. The cells are lysed by the addition of 0.2% NP-40 and brought to 1M NaCl.
After removal of the insoluble debris by centrifugation, the protein is precipitated by the addition of 3 volumes of saturated aqueous ammonium sulfate. The enzyme is pelleted, resuspended in RT buffer (50mM Tris pH 7.5, 1mM EDTA, 5mM DTT, 0.1% NP-40, 0.1M NaCI, and 50% glycerol), and stored at -70°C for further use.
The 2X concentrated stock reaction mixture is aliquoted and stored at -20°C. The mixture is stable and thawed for use in each assay. This enzyme assay has been adapted to a 96 well microtiter plate system, and has been previously described (6). Tris buffer (50 mM, pH 7.4), vehicle (solvent diluted to match the compound dilution), or compounds in vehicle are dispensed into 96-well microtiter plates (10µL/well; 3 wells/ compound). The HIV-1 RT enzyme is thawed, diluted in 50mM Tris pH 7.4 so that fifteen µL of diluted enzyme contain 0.001 Unit (one unit is that amount of enzyme to transform 1 micromole of substrate per minute at 25°C), and fifteen µL are dispensed per well. Twenty µL of 0.12-0.5M EDTA are added to the first three wells of the microtiter plate. EDTA chelates the Mg^++ present and prevents reverse transcription. This group serves as background polymerization which is subtracted from all other groups. Twenty-five ul of the 2X reaction mixture are added to all wells and the assay is allowed to incubate at room temperature for 60 minutes. The assay is terminated by precipitating the DNA in each well with 50µL of 10% trichloracetic acid (TCA) (10% w/v) in sodium pyrophosphate (1% w/v). The microtiter plate is incubated for 15 minutes at 4°C and the precipitate is fixed onto #30 glass fiber paper (Schleicher & Schuell) using a Skatron semi-automatic harvester. […]

[2] = biological target: T2, HIV-1 RT Y181C (Human immunodeficiency virus type 1 group M subtype B, UniProt P03367, Y780C); assay: Reverse Transcriptase (RT) Assay, Y181C mutant enzyme; assay type: biochemical, Human Immunodeficiency Virus (HIV-1); settings: 1 µM compound; for inhibition at 1 µM: read-out: Reverse Transciptase Assay % inhibition (1 µM) Y181C
T2 construct: Utilization of mutant RT eraymes (Y181C and Y181L, prepared by site-directed mutagenesis); made in house
Excerpt: as §1
The 2X concentrated stock reaction mixture is aliquoted and stored at -20°C. The mixture is stable and thawed for use in each assay. This enzyme assay has been adapted to a 96 well microtiter plate system, and has been previously described (6). Tris buffer (50 mM, pH 7.4), vehicle (solvent diluted to match the compound dilution), or compounds in vehicle are dispensed into 96-well microtiter plates (10µL/well; 3 wells/ compound). The HIV-1 RT enzyme is thawed, diluted in 50mM Tris pH 7.4 so that fifteen µL of diluted enzyme contain 0.001 Unit (one unit is that amount of enzyme to transform 1 micromole of substrate per minute at 25°C), and fifteen µL are dispensed per well. Twenty µL of 0.12-0.5M EDTA are added to the first three wells of the microtiter plate. EDTA chelates the Mg^++ present and prevents reverse transcription. This group serves as background polymerization which is subtracted from all other groups. Twenty-five ul of the 2X reaction mixture are added to all wells and the assay is allowed to incubate at room temperature for 60 minutes. The assay is terminated by precipitating the DNA in each well with 50µL of 10% trichloracetic acid (TCA) (10% w/v) in sodium pyrophosphate (1% w/v). The microtiter plate is incubated for 15 minutes at 4°C and the precipitate is fixed onto #30 glass fiber paper (Schleicher & Schuell) using a Skatron semi-automatic harvester. The filters are then washed with additional TCA (5%) containing sodium pyrophosphate (1%), rinsed with aqueous ethanol (70%), dried, and transferred to scintillation vials (6). Each vial receives 2 mL of scintillation cocktail and is counted in a Beckman beta counter. The calculation for percent inhibition is as follows: % inhibition =(CPM Mean Test Value - CPM Mean Control Value X100)/(CPM Mean Control Value) [formula]

[3] = biological target: T3, HIV-1 RT Y188L (Human immunodeficiency virus type 1 group M subtype B, UniProt P03367, Y787L); assay: Reverse Transcriptase (RT) Assay, Y188L mutant enzyme; assay type: biochemical, Human Immunodeficiency Virus (HIV-1); settings: 1 µM compound
T3 construct: effective against the reverse transcriptase of many mutant viruses; made in house

[4] = MTT assay (cytotoxicity); assay type: cell-based; settings: human; H9 cells; five days incubation
Method: In order to roughly assess the cytotoxicity of the compounds provided by the invention, several such compounds were tested in the MTT Assay described below. Compounds having a relatively high CC50 are preferred.
The MTT [3-(4,5-dimethylthiazol-2-yl)-2,5 diphenyl tetrazolium bromide) assay is based on cleavage of tetrazolium bromide by metabolically active cells, resulting in a highly quantitative blue color. This assay has been previously described (1) but has been optimized for the purposes of the testing reported herein.
The H9 cell line (2), an established human lymphoma suspension cell line grown in RPMI 1640 supplemented with 10% fetal bovine serum, is used as the target cell line in the assay. Cells (100µL) are plated in microtest plate wells at a concentration of 10^5 cells per mL in the presence of varying concentrations of inhibitor. The cells are incubated at 37°C in a humidified CO2 incubator. Five days later, 20µL of MTT (5mg/mL in RPMI 1640, sonicated, 0.2 micron filtered, and stored at 4°C) is added to each well. After 4 hours additional incubation at 37°C, 60µL of Triton-X is added to each well and thoroughly mixed to aid the solubilization of the crystals. Absolute ethanol (5µL) is added to each well and the resulting mixture is incubated for 30 minutes at 60°C and immediately read on a plate reader (Dynatech) at a wavelength of 570nm.
Data from this assay are used to generate a nonlinear regression analysis which yields an CC50.

[5] = system: HTLV-IIIB strain of HIV-1; assay: Syncytia (human T-cell culture) assay; assay type: cell-based; settings: Human immunodeficiency virus 1, IIIB, 96 h; c8166 cells; read four days after virus challenge
Method: In order to confirm that compounds which are active in the RT Assay also have the ability to inhibit HIV replication in a living system, compounds according to the invention were also tested in the human T-Cell Culture (Syncytia) Assay described below.
Formation of syncytia is a feature of in vitro cultures of CD4+ T-cells infected with HIV-1. In this assay, T-cells are treated with a putative replication inhibiting compound and then infected with HIV-1. After incubation, the culture is checked for the formation of syncytia. The absence or reduction in the number of syncytia is used as a measure of the test compound's ability to inhibit HIV replication.
The target cells, designated c8166, are a subclone of human lymphoma cells of T-cell origin and are established at an initial density of 5x10^4 per 100 ul in RPMI 1640 (+ 10% fetal bovine serum) culture medium in 96 well flat bottom plates. A selected amount of test compound, dissolved in DMSO, is included. After 24 hours, 50-100 TCID50's (the dose that results in induced effect in 50% of test cultures) of the HTLV-IIIB strain of HIV-1 (2) are inoculated into each culture. Control cultures receive compound or virus only. Four days after virus challenge, cultures are visually examined for the frequency and distribution of virus-induced giant cell syncytia. The percent inhibition by the test compound is determined by comparison with control values. Confirmation of the presence or absence of virus replication is accomplished by harvesting the cell free culture fluids from all experimental groups to determine the presence or absence of infectious progeny through the induction of syncytia formation in secondary human T-cell cultures after 3 days.

SMILES | inhibition at 1 µM [1] [%] | inhibition at 1 µM [2] [%] | Reverse Transciptase Assay % inhibition (1 µM) Y188L [3] [%] | CC50 at 120 h [4] [µM] | IC50 [5] [µM] | Reverse Transciptase Assay % inhibition (1 µM) WT [1] [%] | Reverse Transciptase Assay % inhibition (1 µM) Y181C [2] [%] | Reverse Transciptase Assay % inhibition (1 µM) Y188L ([3]; 1 µM) [%]
CCN1c2ncccc2C(=O)N(C)c2ccc(-c3cnn(CC)c3)nc21 [Example 2, 5,11-Dihydro-11-ethyl-2-(1-ethylpyrazol-4-yl)-5-methyl-6H-dipyrido[3,2-b:2',3'-e][1,4]-diazepin-6-one] | 67 | 72 | 13 | > 60 | – | – | – | –
CCCN1c2nc(-c3cn[nH]c3)ccc2NC(=O)c2cccnc21 [Example 4, 5,11-Dihydro-11-n-propyl-2-(4-pyrazolyl)-6H-dipyrido[3,2-b:2',3'-e][1,4]diazepin-6-one] | 60 | 54 | 29 | > 60 | – | – | – | –
CCCN1c2ncccc2C(=O)N(C)c2ccc(-c3cn[nH]c3)nc21 [Example 5, 5,11-Dihydro-5-methyl-11-n-propyl-2-(4-pyrazolyl)-6H-dipyrido[3,2-b:2',3'-e][1,4]diazepin 6-one] | 90 | 90 | 63 | > 60 | – | – | – | –
CCN1c2ncccc2C(=O)N(C)c2ccc(-c3ccc[nH]3)nc21 [Example 13, 5,11-Dihydro-11-ethyl-5-methyl-2-(2-pyrrolyl)-6H-dipyrido[3,2-b:2',3'-e][1,4]diazepin-6-one] | 88 | 80 | 17 | – | 0.16 | – | – | –
CN1C(=O)c2cccnc2N(C)c2nc(-c3ccc[nH]3)ccc21 [Example 24, 5,11-Dihydro-5,11-dimethyl-2-(2-pyrrolyl)-6H-dipyrido[3,2-b:2',3'-e][1,4]diazepin-6-one] | 39 | 50 | 18 | – | – | – | – | –
CCN1c2ncccc2C(=O)N(C)c2ccc(-c3cn[nH]c3)nc21 [Example 26, 5,11-Dihydro-11-ethyl-5-methyl-2-(4-pyrazolyl)-6H-dipyrido[3,3-b:2',3'-e][1,4]diazepine-6-one] | – | – | – | – | – | 64 | 33 | 20
CCN1c2ncccc2C(=O)N(C)c2ccc(-c3cc4cc(OC)ccc4[nH]3)nc21 [Example 27, 5,11-Dihydro-11-ethyl-2-(5-methoxyindol-2-yl)-5-methyl-6H-dipyrido[3,2-b:2',3'-e][1,4]-diazepin-6-one] | 61 | 45 | 58 | – | – | – | – | –
CCN1c2ncccc2C(=O)N(C)c2ccc(-c3c[nH]c4ccccc34)nc21 [Example 28, 5,11-Dihydro-11-ethyl-2-(indol-3-yl)-5-methyl-6H-dipyrido[3,2-b:2',3'-e][1,4]diazepin-6-one] | 96 | 93 | 72 | > 15 | – | – | – | –

— EP0745083B1, “2-HETEROARYL-5,11-DIHYDRO-6H-DIPYRIDO [3,2-b:2',3'-e][1,4]DIAZEPINES AND THEIR USE IN THE PREVENTION OR TREATMENT OF HIV INFECTION” (BOEHRINGER INGELHEIM PHARMACEUTICALS INC., priority 1994, dated 1995)
